Laboratory results as given in US20160051529A1, “PPAR-SPARING THIAZOLIDINEDIONES AND COMBINATIONS FOR THE TREATMENT OF NEURODEGENERATIVE AND OTHER METABOLIC DISEASES” (METABOLIC SOLUTIONS DEVELOPMENT COMPANY LLC, priority 2012, published 2016).

Test system: PGC-1α
Test: Expression of PGC-1α mRNA in precursor BAT cells with norepinephrine
Format: cell-based
Conditions: 3 μM compound for seven days, then 1 μM norepinephrine for 2 hours, quantitative PCR
Method: Another example of the ability of augmented signaling between cyclic nucleotides and compounds of Formula I is shown by the effect on expression of PGC-1α, a known regulator of mitochondrial biogenesis. Increased numbers of mitochondria are predictive of utility for the reduction of body weight.
Precursor BAT cells were isolated as described above and treated with or without 3 μM compounds: 1.] Compound A: 5-(4-(2-(5-ethylpyridin-2-yl)-2-oxoethoxy)benzyl)-1,3-thiazolidine-2,4-dione; 2.] Compound B: 5-(4-(2R)-2-(5-ethylpyridin-2-yl)-2-hydroxyethoxyy)benzyl)-1,3-thiazolidine-2,4-dione; or 3.] Compound C: 5-(4-(2-(3-methoxyphenyl)-2-oxoethoxy)benzyl)-1,3-thiazolidine-2,4-dione for seven days followed by treatment with 1 μM norepinephrine for 2 hours. Total RNA was isolated from the cells and the RNA message (mRNA) for PGC-1α was measured by quantitative polymerase chain reactions.

| Compound | PGC-1α mRNA (message) |
| --- | --- |
| CCc1ccc([C@@H](O)COc2ccc(CC3SC(=O)NC3=O)cc2)nc1 (stereo partly drawn) [Compound B] | an increase in PGC-1α message was observed |
| COc1cccc(C(=O)COc2ccc(CC3SC(=O)NC3=O)cc2)c1 (stereo not drawn) [Compound C, 5-(4-(2-(3-methoxyphenyl)-2-oxoethoxy)benzyl)-1,3-thiazolidine-2,4-dione] | an increase in PGC-1α message was observed |
| CCc1ccc(C(=O)COc2ccc(CC3SC(=O)NC3=O)cc2)nc1 (stereo not drawn) [Compound A, 5-(4-(2-(5-ethylpyridin-2-yl)-2-oxoethoxy)benzyl)-1,3-thiazolidine-2,4-dione] | an increase in PGC-1α message was observed |

Test system: not listed separately
Test: Glucose, triglycerides and insulin, T/C normalized to vehicle
Format: in vivo
Conditions: normalized to vehicle activity; @0.5

| Compound | Triglycerides (mean T/C) |
| --- | --- |
| CCOC(Oc1ccc(OC[C@H](O)c2ccc(CC)cn2)cc1)C(=O)O (stereo partly drawn) [Compound 36] | 0.50@0.5 T/C |

Same assay, conditions: normalized to vehicle activity; @7.5

| Compound | Insulin (T/C) | Triglycerides (mean T/C) |
| --- | --- | --- |
| CCOC(Oc1ccc(OC[C@@H](O)c2ccc(CC)cn2)cc1)C(=O)O (stereo partly drawn) [Compound 35] | 0.20@7.5 T/C | 0.32@7.5 T/C |
| CCOC(Oc1ccc(OC[C@H](O)c2ccc(CC)cn2)cc1)C(=O)O (stereo partly drawn) [Compound 36] | 0.26@7.5 T/C | 0.41@7.5 T/C |

Same assay, conditions: normalized to vehicle activity; @15

| Compound | Insulin (T/C) | Triglycerides (mean T/C) |
| --- | --- | --- |
| CCOC(Oc1ccc(OC[C@@H](O)c2ccc(CC)cn2)cc1)C(=O)O (stereo partly drawn) [Compound 35] | 0.44@15 T/C | 0.24@15 T/C |
| CCOC(Oc1ccc(OC[C@H](O)c2ccc(CC)cn2)cc1)C(=O)O (stereo partly drawn) [Compound 36] | 0.33@15 T/C |  |

Same assay, conditions: normalized to vehicle activity; @30

| Compound | Insulin (T/C) | Triglycerides (mean T/C) |
| --- | --- | --- |
| CCOC(Oc1ccc(OC[C@@H](O)c2ccc(CC)cn2)cc1)C(=O)O (stereo partly drawn) [Compound 35] | 0.11@30 T/C | 0.17@30 T/C |
| CCOC(Oc1ccc(OC[C@H](O)c2ccc(CC)cn2)cc1)C(=O)O (stereo partly drawn) [Compound 36] | 0.46@30 T/C | 0.38@30 T/C |

Same assay, conditions: normalized to vehicle activity; no dose given

| Compound | Insulin (T/C) | Triglycerides (mean T/C) [T/C] |
| --- | --- | --- |
| CCO/C(=C\c1cccc(OCC(=O)c2cccc(OC)c2)c1)C(=O)O [Compound 13] | 0.81 | 0.86 |
| CCOC(Cc1ccc(OCC(=O)c2cccc(OC)c2)cc1)C(=O)O (stereo not drawn) [Compound 47] | 0.26 | 0.33 |

Test system: 5XFAD mice
Test: Plaque pathology in hippocampus of 5XFAD mice
Format: in vivo
Conditions: chow delivering 390 mg/kg for 4 weeks, same in the control group
Method: 5XFAD mice harbor 5 familial mutations (3 in the amyloid precursor protein; 2 in presenilin 1) and develop robust plaque pathology as early as 6 weeks. These mice were treated beginning at 2 months of age for a period of 4 weeks with control chow or chow containing Compound A to deliver 390 mg/kg for 4 weeks.
Referring to FIG. 7, […] stained plaques were counted in the hippocampus of the 5XFAD mice. […] Note that the plaques having less than 100 micron size were excluded from the graph, and those amounted to about 70% of all the plaques in both Control and Compound A treated groups.

| Compound | plaques having less than 100 micron size, share of all the plaques |
| --- | --- |
| CCc1ccc(C(=O)COc2ccc(CC3SC(=O)NC3=O)cc2)nc1 (stereo not drawn) [Compound A, 5-(4-(2-(5-ethylpyridin-2-yl)-2-oxoethoxy)benzyl)-1,3-thiazolidine-2,4-dione] | about 70% |

Same assay, conditions: chow delivering 390 mg/kg for 4 weeks, versus control chow

| Compound | size and number of thioflavin stained plaques in the hippocampus |
| --- | --- |
| CCc1ccc(C(=O)COc2ccc(CC3SC(=O)NC3=O)cc2)nc1 (stereo not drawn) [Compound A, 5-(4-(2-(5-ethylpyridin-2-yl)-2-oxoethoxy)benzyl)-1,3-thiazolidine-2,4-dione] | less than the control group |

Target: T1, human PPARγ ligand binding domain (LBD) (Homo sapiens, UniProt P37231)
T1 construct: purchased Invitrogen #4894
T1 sequence (P37231 238-503 limits assumed): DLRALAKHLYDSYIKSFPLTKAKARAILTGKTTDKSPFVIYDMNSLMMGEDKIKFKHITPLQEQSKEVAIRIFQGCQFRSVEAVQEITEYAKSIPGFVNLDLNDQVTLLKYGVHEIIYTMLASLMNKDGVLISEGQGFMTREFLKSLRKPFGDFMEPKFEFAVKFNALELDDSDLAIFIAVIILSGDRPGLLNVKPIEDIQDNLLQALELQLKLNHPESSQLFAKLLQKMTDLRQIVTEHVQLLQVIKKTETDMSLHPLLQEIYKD
Test: TR-FRET PPARγ competitive binding assay (Invitrogen LanthaScreen)
Conditions: not given
Method: Whereas activation of the PPARγ receptor is generally believed to be a selection criteria to select for molecules that may have anti-diabetic and insulin sensitizing pharmacology, this invention finds that activation of this receptor should be a negative selection criterion. Molecules will be chosen from this chemical space because they have reduced, not just selective, activation of PPARγ. […] The assays are conducted by first evaluation of the direct interactions of the molecules with the ligand binding domain of PPARγ. This can be performed with a commercial interaction kit that measures the direct interaction by florescence using rosiglitazone as a positive control.
PPARγ binding is measured by a TR-FRET competitive binding assay using Invitrogen LanthaScreen™ TR-FRET PPARγ Competitive Binding Assay (Invitrogen #4894). This assay uses a terbium-labeled anti-GST antibody to label the GST tagged human PPARγ ligand binding domain (LBD). A fluorescent small molecule pan-PPAR ligand tracer binds to the LBD causing energy transfer from the antibody to the ligand resulting in a high TR-FRET ratio. Competition binding by PPARγ ligands displace the tracer from the LBD causing a lower FRET signal between the antibody and tracer. The TR-FRET ratio is determined by reading the fluorescence emission at 490 and 520 nm using a Synergy2 plate reader (BioTek). The ability of several exemplary compounds of the present invention to bind to PPARγ was also measured using a commercial binding assay (Invitrogen Corporation, Carlsbad, Calif.) that measures the test compounds ability to bind with PPAR-LBD/Fluormone PPAR Green complex. These assays were performed on three occasions with each assay using four separate wells (quadruplicate) at each concentration of tested compound. The data are mean and SEM of the values obtained from the three experiments. Rosiglitazone was used as the positive control in each experiment. Compounds were added at the concentrations shown, which ranged from 0.1-100 micromolar.

| IC50 [µM] | Compound |
| --- | --- |
| 18.9 | CCO[C@@H](Cc1ccc(OC[C@@H](NC(=O)OC(C)(C)C)c2ccccc2)cc1)C(=O)O [Compound 55] |
| 111 | COc1cccc(C(=O)COc2ccc(CC(=O)C(=O)O)cc2)c1 [Compound 10] |
| 21.8 | CCO/C(=C\c1cccc(OCC(=O)c2cccc(OC)c2)c1)C(=O)O [Compound 13] |
| 62.2 | CCOC(Cc1ccc(OC/C(=N/OC)c2ccc(CC)cn2)cc1)C(=O)O (stereo not drawn) [Compound 18] |
| 12.3 | CCO[C@@H](Cc1ccc(OC[C@@H](NC=O)c2ccccc2)cc1)C(=O)O [Compound 58] |
| 84.8 | CCOC(=O)[C@H](Cc1ccc(OC[C@@H](N)c2ccccc2)cc1)OCC [Compound 62] |
| 14.1 | CCOC(=O)[C@H](Cc1ccc(OC[C@@H](NC(=O)OC(C)(C)C)c2ccccc2)cc1)OCC [Compound 61] |
| 100 | COc1cccc(C(=O)COc2cccc(O[C@H](C)C(=O)O)c2)c1 [Compound 15] |
| 33.7 | CCO[C@@H](Cc1ccc(OC[C@@H](NC(C)=O)c2ccccc2)cc1)C(=O)O [Compound 56] |
| > 263 | COc1cccc(C(=O)COc2ccc(C[C@@H](O)C(=O)O)cc2)c1 [Compound 53] |
| 0.3 | CCOC(Oc1ccc(OC[C@@H](O)c2ccc(CC)cn2)cc1)C(=O)O (stereo partly drawn) [Compound 35] |
| 14.7 | CCOC(Cc1ccc(OCC(=NO)c2cccc(OC)c2)cc1)C(=O)O (stereo not drawn) [Compound 48] |
| 39.7 | CCO[C@@H](Cc1ccc(OC[C@@H](N)c2ccccc2)cc1)C(=O)O [Compound 57] |
| 21 | CCO/C(=C\c1ccc(OC/C(=N/OC)c2ccc(CC)cn2)cc1)C(=O)O [Compound 17] |
| 17.8 | CCOC(Cc1ccc(OCC(=O)c2ccc(CC)cn2)cc1)C(=O)O (stereo not drawn) [Compound 1] |
| 96.1 | CCO/C(=C\c1ccc(OCC(=O)c2ccc(CC)cn2)cc1)C(=O)O [Compound 14] |
| 157 | CCOC(Cc1ccc(OC[C@@H](F)c2cccc(OC)c2)cc1)C(=O)O (stereo partly drawn) [Compound 50] |
| 6.07 | CCOC(Cc1ccc(OCC(=O)c2cccc(OC)c2)cc1)C(=O)O (stereo not drawn) [Compound 47] |
| > 250 | CCO[C@@H](Cc1ccc(OC[C@H](NC=O)c2ccccc2)cc1)C(=O)O [Compound 59] |
| 17.6 | CCOC(Oc1ccc(OC[C@H](O)c2ccc(CC)cn2)cc1)C(=O)O (stereo partly drawn) [Compound 36] |
| 80.3 | CCO[C@@H](Cc1ccc(OC[C@H](NS(C)(=O)=O)c2ccccc2)cc1)C(=O)O [Compound 60] |
